pEC50: −log10 of the molar value. Like-named read-outs stand apart in the source and are kept apart here.
Assays:
thermal hyperalgesia = test: CCI/Thermal Hyperalgesia (paw withdrawal latency to radiant heat); format: in vivo; conditions: CCI rats; for dose that significantly reversed thermal hyperalgesia: post-hoc comparison relative to vehicle
Description: (§1) Rats were anesthetized under aseptic and heated conditions using a combination of 1.6 ml ketamine (100 mg/ml) and 1.6 ml xylazine (100 mg/ml) in 6.8 ml 0.9% saline at a volume of 0.1 ml/100 g. The left quadriceps was shaved and scrubbed thoroughly with an iodine solution. The sciatic nerve was exposed at the level of the sciatic notch distally to the sciatic trifurcation. The nerve was very carefully freed from the underlying muscle and connective tissue without causing trauma to the nerve itself. Using 4-0 chromic catgut suture material, four semi-loose ligatures were tied around the sciatic nerve starting at the most proximal level, next to the sciatic notch, spaced roughly 1 mm apart and ending proximal to the sciatic trifurcation. […] The muscular incision was closed with 4-0 silk suture material and the skin was stapled with wound clips. The animals were closely observed until they recovered completely from the anesthetic. The surgery was the same for the hyperalgesia and allodynia experiments.
For hyperalgesia testing, rats were placed in a tinted plastic box on top of a clear glass, temperature-regulated floor maintained at 31±1° C. The floor contained a focal radiant heat source (halogen projection lamp CXL/CXP, 50 W, 8 v, USHIO, Tokyo).
To initiate the test, rats were placed in the tinted boxes and allowed 10-20 minutes to acclimate to the new environment. The radiant heat source was then positioned under the plantar surface of the hind paw. Upon activation of the heat source, a timer was simultaneously triggered. Upon reflex movement of the hind paw, a motion sensor was activated stopping the timer and inactivating the heat source. The thermal source was adjusted so that the average response latency for an uninjured animal was no greater than 20 seconds. Each rat had two days of pre-operative baseline latency measurements in which the left rear hind paw plantar surface was measured three to four times. Two to three left postoperative baseline latency measurements were taken before and after the treatment was given. Postoperative day 2 and 4 measurements yielded the greatest degree of hyperalgesia and thus were utilized in this assay. Each animal was tested twice with at least 48 hours separating each test.
Thermal hyperalgesia developed in the surgical-treated left paw as evidenced by a decrease in paw withdrawal latencies to a thermal stimulus. The maximal hyperalgesia occurred on post-operative days 2 through 4. Paw withdrawal latencies on the surgically-treated left side gradually returned to baseline levels over the course of 5 to 12 days post-surgery.

M(2) muscarinic receptor = target: T1, M(2) muscarinic receptor (Homo sapiens, UniProt P08172); test: R-SAT functional receptor assay, M(2); format: cell-based; conditions: for EC50: read-out: M2 pEC50 (converted); for Emax: read-out: M2 % efficacy
T1 construct: expressed in transfected cells
T1 sequence (P08172 1-466): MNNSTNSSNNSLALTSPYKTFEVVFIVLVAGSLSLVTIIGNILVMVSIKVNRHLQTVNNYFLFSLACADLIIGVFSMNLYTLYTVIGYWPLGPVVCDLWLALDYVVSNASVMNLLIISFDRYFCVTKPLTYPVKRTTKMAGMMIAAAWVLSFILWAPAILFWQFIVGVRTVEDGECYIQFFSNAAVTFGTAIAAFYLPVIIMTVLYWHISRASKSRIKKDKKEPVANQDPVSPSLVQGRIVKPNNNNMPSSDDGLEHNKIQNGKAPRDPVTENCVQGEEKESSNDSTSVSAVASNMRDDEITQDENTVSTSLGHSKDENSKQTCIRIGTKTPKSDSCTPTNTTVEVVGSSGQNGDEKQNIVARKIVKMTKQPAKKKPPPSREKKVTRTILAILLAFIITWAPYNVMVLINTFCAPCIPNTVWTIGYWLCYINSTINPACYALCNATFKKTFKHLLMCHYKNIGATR
Description: (§2) The functional receptor assay, Receptor Selection and Amplification Technology (R-SAT), essentially as disclosed in U.S. Pat. Nos. 5,707,798, 5,912,132, and 5,955,281, which are all hereby incorporated by reference in their entirety, was used to investigate the pharmacological properties of known and novel muscarinic agonists.

tactile allodynia [1] = test: Partial Sciatic Ligation (PSL) Surgery/Tactile Allodynia; format: in vivo, mice
acute thermal pain = test: Acute Thermal Analgesia (tail withdrawal from 55° C. water); format: in vivo; conditions: rats; for alleviating acute thermal pain, in words / dose active in acute antinociception (tail withdrawal): 55° C. water; for Acute pain, minimal effective dose: NA = not active at the highest tested dose of 30 mg/kg
Description: Water was heated and maintained at 55° C.±1° C. with a probe regulated hot plate. Female rats weighing approximately 200 g -250 g were acclimated days in advance by placing them into and removing them from a plastic rat restrainer. On the day of the experiment each rat was placed in the restrainer 1 minute before the test was performed. Roughly one inch of the tail was submerged into the water as a timer was initiated. Once the tail was completely removed from the water, the timer was stopped and the time was recorded. […] One round of baseline measurements were collected. The test compound was administered and after the appropriate pretreatment interval, the procedure was repeated. Each animal was utilized in multiple experiments, with one treatment per experiment, and an appropriate washout period of at least 48 hours between experiments. The pre-treatment baseline tail withdrawal latency average was 2.281 s±0.25. […] At a dose of 10 mg/kg, morphine [F(3,23)=5.903, p<0.01] was antinociceptive.

tactile allodynia [2] = test: CCI/Tactile Allodynia (von Frey hairs); format: in vivo; conditions: CCI rats; for dose that reversed tactile allodynia: i.p., post-hoc comparison
Description: as §1
The onset and duration of significant mechanical allodynia post CCI surgery is approximately 10-14 days and lasts for roughly two months. Within this allodynic time frame, and for each specific allodynia experiment, pre and post drug administration measurements were taken with seven von Frey hairs which are designated by log (10* force required to bend hair, mg) and ranged from 2-26 grams (#'s 4.31-5.46). Each hair was pressed perpendicularly against the left injured plantar mid-hind paw surface with sufficient force to cause a slight bending, and was held for 6-8 seconds starting with the thinnest gauged hair and working up to the thickest. A positive response was recorded when the injured paw was sharply withdrawn, and this response was confirmed as positive by testing the next thickest gauged hair for the same response. Only when a response was seen twice was the score accepted. If the maximum gram force of 26 was reached without a response, this was considered the peak threshold cutoff for allodynic behavior and the score was recorded. Animals were considered allodynic when the post surgery baseline measurements were 6 grams and below. Two baseline days of measurements were taken with one round of testing occurring per day. On the day of drug testing, one round of baseline measurements were taken, the appropriate pretreatment was administered i.p. and a second round of measurements were recorded. Each animal was utilized in multiple experiments, with one treatment per experiment, and an appropriate washout period in between experiments.

M(1) muscarinic receptor = target: T2, M(1) muscarinic receptor (Homo sapiens, UniProt P11229); test: R-SAT functional receptor assay, M(1); format: cell-based; conditions: for EC50: read-out: M1 pEC50 (converted); for Emax: read-out: M1 % efficacy
T2 construct: expressed in transfected cells
T2 sequence (P11229 1-460): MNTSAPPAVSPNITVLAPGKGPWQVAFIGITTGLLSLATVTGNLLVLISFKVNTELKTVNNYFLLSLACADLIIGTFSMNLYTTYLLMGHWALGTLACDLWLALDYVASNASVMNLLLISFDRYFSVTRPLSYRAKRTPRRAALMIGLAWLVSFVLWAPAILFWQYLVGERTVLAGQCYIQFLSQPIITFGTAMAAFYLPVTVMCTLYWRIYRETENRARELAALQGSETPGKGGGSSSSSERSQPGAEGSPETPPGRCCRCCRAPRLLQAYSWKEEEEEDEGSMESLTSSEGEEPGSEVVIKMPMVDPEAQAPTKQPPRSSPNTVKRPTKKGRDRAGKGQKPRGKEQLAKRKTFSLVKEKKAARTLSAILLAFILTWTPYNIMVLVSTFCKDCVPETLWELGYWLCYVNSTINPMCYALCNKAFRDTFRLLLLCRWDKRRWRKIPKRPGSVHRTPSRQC
Description: as §2

rats = test: Muscarinic Side Effects; conditions: of N tested

SMILES	Antihyperalgesic, minimal effective dose (thermal hyperalgesia)	dose that significantly reversed thermal hyperalgesia (thermal hyperalgesia)	agonist character at M(2) receptor, in words (M(2) muscarinic receptor; R-SAT)	EC50 (M(2) muscarinic receptor; R-SAT)	Emax (M(2) muscarinic receptor; R-SAT, relative to carbachol)	alleviating acute thermal pain, in words (acute thermal pain)	Antiallodynic, minimal effective dose (tactile allodynia [2])	dose that reversed tactile allodynia (tactile allodynia [2])	agonist character at M(1) receptor, in words (M(1) muscarinic receptor; R-SAT)	EC50 (M(1) muscarinic receptor; R-SAT)	Emax (M(1) muscarinic receptor; R-SAT, relative to carbachol)	dose active in acute antinociception (tail withdrawal) (acute thermal pain)	Acute pain, minimal effective dose (acute thermal pain)	further results
CCCCC1CCN(CCCN2C(=O)COc3cc(F)ccc32)CC1 [Formula (IX)]	10.0 mg/kg	10 mg/kg	weak partial agonists	501 nM	48%	not active	17.8 mg/kg	17.8 mg/kg	potent and efficacious M(1) agonist	31.6 nM	79%	–	–	effect on tactile allodynia after PSL, in words (tactile allodynia [1]; M(1) receptor knockout (KO) mice, 30 mg/kg): completely abolished; effect on tactile allodynia after PSL, in words (tactile allodynia [1]; mice, intracerebroventricular (i.c.v.) administration): significantly reversed tactile allodynia; effect on tactile allodynia after PSL, in words (tactile allodynia [1]; wild type (WT) mice, 30 mg/kg): significantly alleviated the tactile allodynia
CCCCC1CCN(CCCc2nsc3ccccc23)CC1 [Formula (VII)]	10.0 mg/kg	10 mg/kg	weak partial agonists	1260 nM	36%	not active	10.0 mg/kg	10 mg/kg	potent and efficacious M(1) agonist	79.4 nM	85%	–	–	–
CCCCC1CCN(CCCN2CCOc3ccc(C)cc32)CC1 [Formula (VIII)]	10.0 mg/kg	10 mg/kg	weak partial agonists	501 nM	–	not active	30.0 mg/kg	30 mg/kg	potent and efficacious M(1) agonist	20 nM	–	–	–	Emax (M(2) muscarinic receptor): 39%; Emax (M(1) muscarinic receptor): 81%
CO/N=C/C1=CCCN(C)C1 [Milameline]	0.3 mg/kg	–	potent and efficacious full agonists	631 nM	110%	–	0.3 mg/kg	–	potent and efficacious full agonists	398 nM	90%	1.0 mg/kg	1.0 mg/kg	–
CN1CC[C@]23c4c5ccc(O)c4O[C@H]2[C@@H](O)C=C[C@H]3[C@H]1C5 [Morphine, morphine]	–	–	–	–	–	–	–	–	–	–	–	10 mg/kg	–	anti-allodynia, in words (tactile allodynia [2]): elicited anti-allodynia
O=C1CCCN1CC#CCN1CCCC1 [Oxotremorine]	0.3 mg/kg	–	potent and efficacious full agonists	–	–	–	0.3 mg/kg	–	potent and efficacious full agonists	–	–	–	0.3 mg/kg	paw withdrawal latency (thermal hyperalgesia; dose 1 mg/kg): 18.468 ± 1.532 s; pEC50 (M(2) muscarinic receptor): 7.80; Emax (M(2) muscarinic receptor): 104%; Chromodaccyhrea, number of animals exhibiting (rats; 0.1 mg/kg): 0; Diarrhea, number of animals exhibiting (rats; 0.1 mg/kg): 1; Lethargy, number of animals exhibiting (rats; 0.1 mg/kg): 0; Salivation, number of animals exhibiting (rats; 0.1 mg/kg): 0; Tremor, number of animals exhibiting (rats; 0.1 mg/kg): 0; Chromodaccyhrea, number of animals exhibiting (rats; 0.3 mg/kg): 2; Diarrhea, number of animals exhibiting (rats; 0.3 mg/kg): 7; Lethargy, number of animals exhibiting (rats; 0.3 mg/kg): 0; Salivation, number of animals exhibiting (rats; 0.3 mg/kg): 9; Tremor, number of animals exhibiting (rats; 0.3 mg/kg): 0; Chromodaccyhrea, number of animals exhibiting (rats; 1 mg/kg): 8; Diarrhea, number of animals exhibiting (rats; 1 mg/kg): 18; Lethargy, number of animals exhibiting (rats; 1 mg/kg): 18; Salivation, number of animals exhibiting (rats; 1 mg/kg): 16; Tremor, number of animals exhibiting (rats; 1 mg/kg): 6; pEC50 (M(1) muscarinic receptor): 7.20; Emax (M(1) muscarinic receptor): 91%
CCCCCCOc1nsnc1C1=CCCN(C)C1 [Xanomeline]	10.0 mg/kg	10 mg/kg	potent and efficacious full agonists	–	109%	–	10.0 mg/kg	–	–	–	–	10.0 mg/kg	10.0 mg/kg	dose that did not reverse thermal hyperalgesia (thermal hyperalgesia; p>0.05 relative to vehicle): 3 mg/kg

From patent US20050130961A1, “Muscarinic M1 receptor agonists for pain management” (priority 2003, published 2005)
